Experimental data as given in US20040204577A1, “Novel peptide-forming enzyme gene” (Ajinomoto Co., Inc., priority 2003, published 2004).
Marks after values point to notes of the source that are not given here. Where a SMILES comes first, the peptide text is derived from it. Where no end group is shown, it is not given here. [ ]: non-standard residue; d: D form.

How the values were obtained:
[1] = tested on: enzyme derived from Sphingobacterium sp. strain FERM BP-8124 (SP-Sepharose HP fraction enzyme); assay: Enzyme substrate specificity (11), (12): peptide production; assay type: biochemical; design: key to Produced peptide (Table 15-1) / Produced peptide (Table 15-3) / Produced peptide (Table 15-4): +: those peptides for which production was confirmed but which were unable to be quantified due to the absence of a standard; a trace amount; details: carboxy component 100 mM, 0.33 units enzyme, pH 9.0, 25° C., 1.5 hours; for Produced peptide (Table 15-4): amides and methylamine
Description: Substrate specificity was examined for enzyme derived from Sphingobacterium sp. strain FERM BP-8124 (Depositary institution: the independent administrative corporation, National Institute of Advanced Industrial Science and Technology, International Patent Organism Depositary, Address of depositary institution: Chuo Dai-6, 1-1 Higashi 1-Chome, Tsukuba-shi, Ibaraki-ken, Japan, International deposit date: […] The amounts of various peptides formed in this reaction are shown in Table 15. The “+” mark indicates those peptides for which production was confirmed but which were unable to be quantified due to the absence of a standard, while “tr” indicates a trace amount. Furthermore, Tween-80 was added to the reaction system to a final concentration of 0.1% in the case of using L-Tyr-OMe. In addition, hydrochloride salts were used for all carboxy components. Substrate specificity with respect to oligopeptide production was examined for enzyme derived from Sphingobacterium sp. strain FERM BP-8124 (Depositary institution: the independent administrative corporation, National Institute of Advanced Industrial Science and Technology, International Patent Organism Depositary, Address of depositary institution: Chuo Dai-6, 1-1 Higashi 1-Chome, Tsukuba-shi, Ibaraki-ken, Japan, International deposit date: […] The amounts of each oligopeptide formed in this reaction are shown in Table 16. Furthermore, hydrochloride salts were used for all the carboxy components.

[2] = tested on: peptide-forming enzyme (Mono S fraction enzyme); assay: Enzyme substrate specificity (1)-(10), (13), (14): peptide production; assay type: biochemical, Empedobacter brevis; design: key to Produced peptide (oligopeptide): +: those for which production was confirmed but which were unable to be quantified due to the absence of a standard; a trace amount; key to Formed peptide: +: those peptides for which production was confirmed but which were unable to be quantified due to the absence of a standard; a trace amount; details: pH 9.0, 25° C., 3 hours
Procedure: Ester specificity was examined in the case of using L-amino acid ester for the carboxy component. 2 μl of the same enzyme fraction as used in Example 5 was added to 100 μl of 100 mM borate buffer (pH 9.0) containing the carboxy components indicated in Table 4 at 100 mM, 200 mM L-glutamine and 10 mM EDTA, and allowed to react at 25° C. for 2 hours. HCl represents hydrochloride in Table 4.
Peptide production was examined in the case of using L-alanine methyl ester for the carboxy component and using various L-amino acids for the amine component.
Peptide production was examined in the case of using various types of L-amino acid methyl esters for the carboxy component and using L-glutamine for the amine component. 2 μl of the same enzyme fraction as used in Example 5 was added to 100 μl of 100 mM borate buffer (pH 9.0) containing the L-amino acid methyl ester hydrochloride salts (AA-OMe.HCl) shown in Table 6 at 100 mM, 150 mM L-glutamine and 10 mM EDTA, and allowed to react at 25° C. for 3 hours. […] Furthermore, Tween-80 was added to the reaction system to a final concentration of 0.1% in the case of using L-Trp-OMe and L-Tyr-OMe.
Peptide production was examined in the case of using various L-amino acid methyl esters for the carboxy component and various L-amino acids for the amine component. 2 μl of the same enzyme fraction as used in Example 5 was added to 100 μl of 100 mM borate buffer (pH 9.0) containing the L-amino acid methyl ester hydrochloride salts (AA-OMe.HCl) shown in Table 7 at 100 mM, the L-amino acids shown in Table 7 at 150 mM and 10 mM EDTA, and allowed to react at 25° C. for 3 hours. The “tr” indicates a trace amount. Furthermore, Tween-80 was added to the reaction system to a final concentration of 0.1% in the case of using L-Trp-OMe.
Peptide production was examined in the case of using the L or D forms of various amino acid methyl esters for the carboxy component, and the L or D forms of various amino acids for the amine component. 2 μl of the same enzyme fraction as used in Example 5 was added to 100 μl of 100 mM borate buffer (pH 9.0) containing the various amino acid methyl ester hydrochloride salts (AA-OMe HCl) shown in Table 8 at 100 mM, the various amino acids shown in Table 8 at 150 mM and 10 mM EDTA, and allowed to react at 25° C. for 3 hours. The “tr” indicates a trace amount.
Peptide production was examined using various L-amino acid amides for the carboxy component, and various L-amino acids for the amine component. 2 μl of the same enzyme fraction as that used in Example 5 was added to 100 μl of 100 mM borate buffer (pH 9.0) containing the L-amino acid amide hydrochloride salt (M-NH2.HCl) shown in Table 9 at 100 mM, the L-amino acids shown in Table 9 at 150 mM and 10 mM EDTA, and allowed to react at 25° C. for 3 hours.
Peptide production was examined in the case of using various L-alanine methyl esters for the carboxy component and C-protected L-amino acids for the amine component. 2 μl of the same enzyme fraction as used in Example 5 was added to 100 μl of 100 mM borate buffer (pH 9.0) containing the L-alanine methyl ester hydrochloride hydrochloride salt (Ala-OMe.HCl) shown in Table 10 at 100 mM, the L-amino acid amide hydrochloride salts shown in Table 10 at 150 mM and 10 mM EDTA, and allowed to react at 25° C. for 3 hours.
Peptide production was examined in the case of using various amino acid methyl esters for the carboxy component and methylamine for the amine component. 2 μl of the same enzyme fraction as used in Example 5 was added to 100 μl of 100 mM borate buffer (pH 9.0) containing the amino acid methyl ester hydrochloride salt (M-OMe.HCl) shown in Table 11 at 100 mM, the methylamine shown in Table 11 at 150 mM and 10 mM EDTA, and allowed to react at 25° C. for 3 hours.
Peptide production was examined in the case of using […] for the carboxy component or β-amino acid for the amine component.

[3] = L or D amino acid methyl ester hydrochloride 100 mM, L or D amino acid 150 mM
[4] = L-amino acid methyl ester hydrochloride 100 mM, L-amino acid 150 mM
[5] = L-amino acid methyl ester hydrochloride 100 mM, 150 mM L-glutamine
[6] = L-alanine methyl ester hydrochloride 100 mM, L-amino acid amide hydrochloride 150 mM
[7] = 100 mM L-alanine methyl ester hydrochloride, L-amino acid 150 mM
[8] = L-amino acid ester 100 mM, peptide (amine component) 150 mM
[9] = β-amino acid ester or β-amino acid, carboxy component 100 mM, amine component 150 mM

## C[C@@H](N)C(=O)N[C@H](CO)C(=O)O [D-Ala-D-Ser] (H-[dA]-[dS]-OH)
[1]; amine component 150 mM
  Produced peptide (Table 15-1): 5.5 mM
[2]; [3]
  Formed peptide: 0.2 mM

## C[C@@H](N)C(=O)N[C@@H](CO)C(=O)O [D-Ala-L-Ser] (H-[dA]-Ser-OH)
[1]; amine component 150 mM
  Produced peptide (Table 15-1): 24.1 mM
[2]; [3]
  Formed peptide: 20.3 mM

## NCC(=O)N[C@@H](CCCN=C(N)N)C(=O)O [Gly-L-Arg] (H-Gly-Arg-OH)
[1]; amine component 150 mM
  Produced peptide (Table 15-3): 17.9 mM
[2]; [4]
  Formed peptide: 25.5 mM

## NCC(=O)N[C@@H](CCC(N)=O)C(=O)O [Gly-L-Gln] (H-Gly-Gln-OH)
[1]; L-Gln 150 mM
  Produced peptide (Table 15-2): 61.1 mM
[2]; [5]
  Formed peptide: 54.7 mM

## NCCCC[C@H](NC(=O)CN)C(=O)O [Gly-L-Lys] (H-Gly-Lys-OH)
[1]; amine component 150 mM
  Produced peptide (Table 15-3): 48.2 mM
[2]; [4]
  Formed peptide: 9.8 mM

## NCC(=O)N[C@@H](Cc1ccccc1)C(=O)O [Gly-L-Phe] (H-Gly-Phe-OH)
[1]; amine component 150 mM
  Produced peptide (Table 15-3): 20.0 mM
[2]; [4]
  Formed peptide: 44.0 mM
[2]; amount of enzyme 0.1 unit
  Produced peptide (oligopeptide): 17.3 mM

## NCC(=O)N[C@@H](CO)C(=O)O [Gly-L-Ser] (H-Gly-Ser-OH)
[1]; amine component 150 mM
  Produced peptide (Table 15-3): 53.8 mM
[2]; [4]
  Formed peptide: 44.2 mM

## CNC(=O)CN [Gly-methylamine]
[1]; amine component 150 mM
  Produced peptide (Table 15-4): 1.0 mM
[2]; amino acid methyl ester hydrochloride 100 mM, methylamine 150 mM
  Formed peptide: 1.1 mM

## C[C@H](N)C(=O)N[C@H](CO)C(=O)O [L-Ala-D-Ser] (H-Ala-[dS]-OH)
[1]; amine component 150 mM
  Produced peptide (Table 15-1): 3.3 mM
[2]; [3]
  Formed peptide: 5.4 mM

## C[C@H](N)C(=O)NCC(N)=O [L-Ala-Gly-NH2] (H-Ala-Gly-NH2)
[1]; amine component 150 mM
  Produced peptide (Table 15-4): 15.1 mM
[2]; [6]
  Formed peptide: 7.4 mM

## C[C@H](N)C(=O)NCC(=O)O [L-Ala-Gly] (H-Ala-Gly-OH)
[1]; amine component 150 mM
  Produced peptide (Table 15-1): 11.1 mM
[2]; [7]
  Formed peptide: 13.7 mM

## C[C@H](N)C(=O)N[C@@H](C)C(N)=O [L-Ala-L-Ala-NH2] (H-Ala-Ala-NH2)
[1]; amine component 150 mM
  Produced peptide (Table 15-4): 9.2 mM
[2]; [6]
  Formed peptide: 8.3 mM

## C[C@H](N)C(=O)N[C@@H](C)C(=O)O [L-Ala-L-Ala] (H-Ala-Ala-OH)
[1]; amine component 150 mM
  Produced peptide (Table 15-1): 13.1 mM
  Produced peptide (Table 16, oligopeptide): 25.6 mM
[2]; [7]
  Formed peptide: 25.4 mM
[2]; [8]
  Produced peptide: 28.7 mM

## C[C@H](N)C(=O)N[C@@H](CC(N)=O)C(=O)O [L-Ala-L-Asn] (H-Ala-Asn-OH)
[1]; amine component 150 mM
  Produced peptide (Table 15-1): 52.3 mM
[2]; [7]
  Formed peptide: 65.5 mM

## C[C@H](N)C(=O)N[C@@H](CC(=O)O)C(=O)O [L-Ala-L-Asp] (H-Ala-Asp-OH)
[1]; amine component 150 mM
  Produced peptide (Table 15-1): 2.3 mM
[2]; [7]
  Formed peptide: 2.1 mM

## C[C@H](N)C(=O)N[C@@H](CS)C(=O)O [L-Ala-L-CySH] (H-Ala-Cys-OH)
[1]; amine component 150 mM
  Produced peptide (Table 15-1): +
[2]; [7]
  Formed peptide: +

## C[C@H](N)C(=O)N[C@@H](CCC(=O)O)C(=O)O [L-Ala-L-Glu] (H-Ala-Glu-OH)
[1]; amine component 150 mM
  Produced peptide (Table 15-1): 39.1 mM
[2]; [7]
  Formed peptide: 42.9 mM

## CC[C@H](C)[C@H](NC(=O)[C@H](C)N)C(=O)O [L-Ala-L-Ile] (H-Ala-Ile-OH)
[1]; amine component 150 mM
  Produced peptide (Table 15-1): 24.7 mM
[2]; [7]
  Formed peptide: 33.9 mM

## C[C@H](N)C(=O)N[C@@H](CCCCN)C(=O)O [L-Ala-L-Lys] (H-Ala-Lys-OH)
[1]; amine component 150 mM
  Produced peptide (Table 15-1): 71.2 mM
[2]; [7]
  Formed peptide: 71.8 mM

## C[C@H](N)C(=O)N[C@@H](Cc1ccccc1)C(N)=O [L-Ala-L-Phe-NH2]
[1]; amine component 150 mM
  Produced peptide (Table 15-4): 27.1 mM
[2]; [6]
  Formed peptide: 12.2 mM

## CSCC[C@H](NC(=O)[C@@H](N)CCSC)C(=O)O [L-Met-L-Met] (H-Met-Met-OH)
[1]; amine component 150 mM
  Produced peptide (Table 15-3): 28.4 mM

## CSCC[C@H](N)C(=O)N[C@@H](CO)C(=O)O [L-Met-L-Ser] (H-Met-Ser-OH)
[1]; amine component 150 mM
  Produced peptide (Table 15-3): 25.3 mM

## C[C@@H](O)[C@H](N)C(=O)NC(CC(=O)O)c1ccccc1 (stereo partly drawn) [Thr-β-Phe]
[2]; [9]
  Formed peptide: 1.4 mM

## NC(=O)CC[C@H](NC(=O)[C@@H](N)CCC(=O)O)C(=O)O [α-L-Glu-L-Gln] (H-Glu-Gln-OH)
[2]; [5]
  Formed peptide: +

## NCCC(=O)N[C@@H](CCC(N)=O)C(=O)O [β-Ala-L-Gln]
[2]; [9]
  Formed peptide: 0.6 mM

## NCCC(=O)NC(CO)C(=O)O [β-Ala-L-Ser]
[2]; [9]
  Formed peptide: 3.2 mM

## C[C@H](NC(=O)CCN)C(=O)O [β-Ala-L-α-Ala]
[2]; [9]
  Formed peptide: tr

## NCCC(=O)NCCC(=O)O [β-Ala-β-Ala]
[2]; [9]
  Formed peptide: 0.2 mM

## NC(=O)CC[C@H](NC(=O)C[C@H](N)C(=O)O)C(=O)O [β-L-Asp-L-Gln]
[2]; [5]
  Formed peptide: tr

## NC(=O)CC[C@H](NC(=O)CC[C@H](N)C(=O)O)C(=O)O [γ-L-Glu-L-Gln]
[2]; [5]
  Formed peptide: +

## Gly-Gly-L-Gln
[2]; [8]
  Produced peptide: 7.2 mM

## Gly-Gly-L-Tyr-L-Ala
[2]; [8]
  Produced peptide: 44.2 mM

## Gly-Phe-Met
[2]; amount of enzyme 1.0 unit
  Produced peptide (oligopeptide): 13.3 mM

## L-Ala-Gly-Gly-L-Phe-L-Met
[2]; amount of enzyme 0.2 unit
  Produced peptide (oligopeptide): +

## L-Ala-Gly-L-Phe
[2]; amount of enzyme 0.1 unit
  Produced peptide (oligopeptide): +

## L-Ala-L-Ala-L-Ala-L-Ala-L-Ala-L-Ala
[2]; carboxy component 10 mM, amine component 15 mM (low solubility)
  Produced peptide: 1.4* mM

## L-Ala-L-Phe-L-Met
[2]; amount of enzyme 0.2 unit
  Produced peptide (oligopeptide): +

## L-Tyr-Gly-Gly-L-Phe-L-Met
[2]; amount of enzyme 1.0 unit
  Produced peptide (oligopeptide): 2.7 mM

## [dA]-Gly-Phe
[2]; amount of enzyme 0.1 unit
  Produced peptide (oligopeptide): Tr
